Nine compounds from US20160102074A1, “SUBSTITUTED AMIDE COMPOUNDS” (PFIZER INC., priority 2014, published 2016) can be followed below.

Series [1] relates to human PCSK9. In words: PCSK9 AlphaLISA assay, PCSK9 lowering in WT7 cells. The settings on record: WT7 cells (Huh7 stably over-expressing human PCSK9), secreted PCSK9 by AlphaLISA, overnight incubation (16-24 h), top concentration 20 μM; read-out: Cell Based PCSK9 IC50. The text has this: PCSK9 Lowering in WT7 Cells
An in-vitro AlphaLISA assay (Perkin Elmer) was developed in order to quantitate the level of PCSK9 secreted into the cell culture media following compound treatment. To detect and measure PCSK9 protein a mouse monoclonal anti-human PCSK9 antibody was coupled to AlphaLISA acceptor beads by an external vendor (Perkin Elmer) and a second rabbit monoclonal anti-human PCSK9 antibody with an epitope distinct from that of the acceptor beads was biotinylated using the EZ link NHS-LC-LC-Biotin kit (Life Technologies #21338). Streptavidin coated-donor beads (Perkin Elmer) are also included in the assay mixture which then binds the biotinylated anti-PCSK9 antibody and in the presence of PCSK9 this donor complex and acceptor beads are brought into close proximity. Upon excitation of the donor beads at 680 nm singlet oxygen molecules are released that trigger an energy transfer cascade within the acceptor beads resolving as a single peak of light emitted at 615 nm. The ability of compound to modulate PCSK9 protein levels in conditioned media by AlphaLISA was assessed in the human hepatocellular carcinoma cell line Huh7, stably over-expressing human PCSK9. This cell line, termed WT7, was established by transfecting Huh7 cells with an in-house modified pcDNA 3.1 (+) Zeo expression vector (Life Technologies) containing the full-length human PCSK9 sequence (NCBI reference identifier, NM_174936.3, where coding sequence start annotated at position 363) and a c-terminal V5 and 6×-His tag. Following plasmid transfection the stable WT7 clone was identified and maintained under Zeocin selection. Compound screening was performed in 384-well plates where WT7 cells were plated at a density of 7500 cells per well in 20 μL of tissue culture media containing compound in an eleven point, 0.5 log dilution format at a high treatment concentration of 20 μM in a final volume of 0.5% DMSO. In additional to these test compound conditions each screening plate also included wells that contained 20 μM puromycin as a positive assay control defined as high percent effect, HPE, as well as wells containing media in 0.5% DMSO as a negative treatment control defined as zero percent effect, ZPE. After overnight compound incubation (16-24 h) the tissue culture media was collected and an aliquot from each sample was transferred to individual wells of a 384-well white Optiplate (Perkin Elmer). The coupled antibodies and donor beads were added to the assay plates in a buffer composed of 30 mM Tris pH 7.4, 0.02% Tween-20 and 0.02% Casein. Anti-PCSK9 acceptor beads (final concentration of 10 μg/mL) and anti-PCSK9 biotinylated antibody (final concentration of 3 nM) were added and incubated for 30 minutes at room temperature followed by the addition of the streptavidin donor beads (final concentration 40 μg/mL) for an additional 60 minutes. Additionally a standard curve was generated where AlphaLISA reagents were incubated in wells spiked with recombinant human PCSK9 diluted in tissue culture media from 5000 ng/mL to 0.6 ng/mL. Following incubation with AlphaLISA reagents plates were read on an EnVision (Perkin Elmer) plate reader at an excitation wavelength of […] and emission/detection wavelength of […]. To determine compound IC50 the data for HPEand ZPEcontrol wells were first analyzed and the mean, standard deviation and Z prime calculated for each plate. The test compound data were converted into percent effect, using the ZPE and HPE controls as 0% and 100% activity, respectively. The equation used for converting each well reading into percent effect was:
IC50 was then calculated and reported as the midpoint in the percent effect curve in molar units and the values are reported under the Cell Based PCSK9 IC50 (μM) column header within Table 2 Biological Data. […]

Series [2] is described as follows: Human hepatocyte in vitro liver metabolism assay (HHep). The series is classed as in vitro ADME. The settings on record: cryopreserved human hepatocytes, 0.5 million viable cells per mL, 37° C. The text has this: In particular, the human intestinal S9 fraction in vitro stability assay (HInt) and human hepatocyte in vitro liver metabolism assay (HHep) provide important information regarding the clearance and metabolic activation of these compounds. The human intestinal S9 fraction in vitro stability assay provides a surrogate measure of compound metabolism as it travels across the gut wall; compounds with low CLint values more likely to enter the portal vein and be exposed to the liver. Likewise, the human hepatocyte in vitro liver metabolism assay provides a surrogate measure of compound metabolism when exposed to liver; compounds with high CLint values are more likely to be metabolically activated. For compounds such as prodrugs that release an active species on metabolic activation, high CLint values in human hepatocytes are desirable. Active compounds released in this way inhibit PCSK9 and show improved atherosclerotic properties by increased exposure of the active metabolite in the liver.
Human Hepatocyte In Vitro Liver Metabolism Assay (HHep)
In order to determine the rate of metabolism leading to conversion of prodrug into active drug form, experiments utilizing human hepatocytes were performed. Hepatocytes are an ideal in vitro system to monitor hepatic metabolism since these intact cells contain all the hepatic enzymes found in vivo, including phase I enzymes (such as CYPs, aldehyde oxidases, esterases and MAOs) and phase II enzymes (such as UDP-glucuronyltransferases and sulfotransferases). The assay utilizes isolated hepatocytes from human donors incubated with the compound of interest in conditions mimicking physiological conditions where the metabolic stability of the compound is investigated. The experimental protocol is as follows. Vials of cryopreserved human hepatocytes (stored in liquid nitrogen until used for testing) were thawed in a water bath (37 to 40° C.) until nearly thawed, transferred to a conical tube, resuspended by inversion and subsequently centrifuged at 50-90 g at room temperature for 5 min. The supernatant was then discarded and the pellet loosened by gently tapping the end of the conical tube. William's E media was then added to achieve the desired final cell density (0.5 million viable cells per mL), and the hepatocytes were then resuspended in this fresh media. The viable cell count was then determined using the trypan blue exclusion method where a minimum viability of 70% was obtained. At this point, new molecular entities (NME's) were prepared for testing. In brief, the NME was diluted with DMSO such that final incubation concentration of NME was […] and final DMSO content was 0.1%. Assays were conducted in a 384-well format at 37° C. in an incubator held at 95% air to 5% CO2 at 95% relative humidity. The per-well incubation total incubation volume was 20 μL including hepatocytes and NME. The assay was performed using 7 hepatocyte plates where the plates were designated as sampling times 0, 15, 30, 60, 120 and 240 min and include hepatocytes and NME, and a no NME control plate with hepatocytes that was taken at 240 min. Two additional no hepatocyte containing control plates were prepared and subsequently sampled at 0 and 240 min, respectively, and were identical to the hepatocyte containing plates with respect to NME and media composition. The incubations were stopped using acetonitrile and prepared for analytical testing using liquid chromatography mass-spectrometry (LC/MS) detection. Each NME was optimized for LC/MS analytical conditions. A disappearance curve was generated from the sample time point analytical peak areas and compared to control plate results (control plates allow artifacts such as non-hepatocyte mediated decline (e.g., media/condition instability for the NME) to be determined). The slope of the disappearance curve was used to determine metabolic stability expressed CLint. […]

Consider `CCOC(=O)O[C@@H](C)n1nnnc1-c1c(-c2ccc(C(=O)N(c3ncccc3C)[C@@H]3CCCNC3)cc2F)cnn1C` [Example 8, ethyl (S)-1-{5-[4-(4-{(3-methylpyridin-2-yl)[(3R)-piperidin-3-yl]carbamoyl}-2-fluorophenyl)-1-methyl-1H-pyrazol-5-yl]-1H-tetrazol-1-yl}ethyl carbonate], for which, in series [1], the IC50 was more than 20 µM. The “HHep CLint” value in series [2] stood at 51.3 μL/min/mil.
For `Cn1ncc(-c2ccc(C(=O)N(c3ncccc3Cl)[C@@H]3CCCNC3)cc2F)c1-c1nn[nH]n1` [Example 3, N-(3-chloropyridin-2-yl)-3-fluoro-4-[1-methyl-5-(2H-tetrazol-5-yl)-1H-pyrazol-4-yl]-N-[(3R)-piperidin-3-yl]benzamide], the IC50 in series [1] is more than 20 µM.
Consider `CCOC(=O)O[C@@H](C)n1nnnc1-c1c(-c2ccc(C(=O)N(c3ncccc3C)[C@@H]3CCCNC3)cc2)cnn1C` [Example 5a, ethyl (S)-1-{5-[1-methyl-4-(4-{(3-methylpyridin-2-yl)[(3R)-piperidin-3-yl]carbamoyl}phenyl)-1H-pyrazol-5-yl]-1H-tetrazol-1-yl}ethyl carbonate], for which, in series [1], the IC50 is more than 20 µM. The “HHep CLint” value in series [2] worked out at 57.2 μL/min/mil.
The like results for `CCOC(=O)O[C@H](C)n1nnnc1-c1c(-c2ccc(C(=O)N(c3ncccc3Cl)[C@@H]3CCCNC3)cc2F)cnn1C` [Example 11, ethyl (R)-1-{5-[4-(4-{(3-chloropyridin-2-yl)[(3R)-piperidin-3-yl]carbamoyl}-2-fluorophenyl)-1-methyl-1H-pyrazol-5-yl]-1H-tetrazol-1-yl}ethyl carbonate] were, in that order, 16.1 µM and more than 170 μL/min/mil.
The like results for `CCOC(=O)O[C@@H](C)n1nnnc1-c1c(-c2ccc(C(=O)N(c3ncccc3Cl)[C@@H]3CCCNC3)nc2)cnn1C` [Example 10, ethyl (S)-1-{5-[4-(6-{(3-chloropyridin-2-yl)[(3R)-piperidin-3-yl]carbamoyl}pyridin-3-yl)-1-methyl-1H-pyrazol-5-yl]-1H-tetrazol-1-yl}ethyl carbonate] were, in that order, more than 20 µM and 11.8 μL/min/mil.
The like results for `CCOC(=O)O[C@H](C)n1nnnc1-c1c(-c2ccc(C(=O)N(c3ncccc3C)[C@@H]3CCCNC3)cc2)cnn1C` [Example 5b, ethyl (R)-1-{5-[1-methyl-4-(4-{(3-methylpyridin-2-yl)[(3R)-piperidin-3-yl]carbamoyl}phenyl)-1H-pyrazol-5-yl]-1H-tetrazol-1-yl}ethyl carbonate] were, in that order, more than 20 µM and 85.0 μL/min/mil.
`CCOC(=O)O[C@@H](C)n1nnnc1-c1c(-c2ccc(C(=O)N(c3ncccc3Cl)[C@@H]3CCCNC3)cc2F)cnn1C` [Example 7, ethyl (S)-1-{5-[4-(4-{(3-chloropyridin-2-yl)[(3R)-piperidin-3-yl]carbamoyl}-2-fluorophenyl)-1-methyl-1H-pyrazol-5-yl]-1H-tetrazol-1-yl}ethyl carbonate]: the IC50 in series [1] was more than 20 µM. In addition, the “HHep CLint” value in series [2] is recorded as 97.6 μL/min/mil.
Regarding `CCOC(=O)O[C@@H](C)n1nnnc1-c1c(-c2ccc(C(=O)N(c3ncccc3C)[C@@H]3CCCNC3)nc2)cnn1C` [Example 9, ethyl (S)-1-{5-[1-methyl-4-(6-{(3-methylpyridin-2-yl)[(3R)-piperidin-3-yl]carbamoyl}pyridin-3-yl)-1H-pyrazol-5-yl]-1H-tetrazol-1-yl}ethyl carbonate], the IC50 in series [1] is more than 20 µM. Moreover, in series [2], the “HHep CLint” value is recorded as 7.0 μL/min/mil.
The like results for `CCOC(=O)O[C@@H](C)n1nnnc1-c1c(-c2ccc(C(=O)N(c3ncccc3Cl)[C@@H]3CCCNC3)cc2)cnn1C` [Example 6, ethyl (S)-1-{5-[1-methyl-4-(4-{(3-chloropyridin-2-yl)[(3R)-piperidin-3-yl]carbamoyl}phenyl)-1H-pyrazol-5-yl]-1H-tetrazol-1-yl}ethyl carbonate] were, in that order, more than 20 µM and 71.2 μL/min/mil.
